Experimental data: ChEMBL document CHEMBL3507680, “University of Dundee, Gates Library screen for HepG2 cell viability”

Assay: Human HepG2 cell viability assay in 384 well format
Assay type: toxicity, cell-based
Set-up: dose 125 nL, time 70.5 hour; cytotoxicity at 70.5 h: concentration not given beside the values
Settings: HepG2 cells, read-out: Inhibition

Row | Structure (SMILES) | cytotoxicity at 70.5 h [%]
1 | Cn1cccc1C(O)CNC(=O)c1ccc2nsnc2c1 (configuration not stated) | -14.5
2 | COc1cc(C)c(C)cc1S(=O)(=O)NCC(O)c1cccn1C (configuration not stated) | -5.03
3 | COc1ccc(S(=O)(=O)NCC(O)c2sccc2C)cc1C (configuration not stated) | -3.59
4 | O=C(Cc1ccc(F)cc1)NCC(O)(c1cccs1)C1CC1 (configuration not stated) | 13.2
5 | O=C(NCC(O)(c1cccs1)C1CC1)NC1CCCCC1 (configuration not stated) | 10.9
6 | Cc1noc(C)c1S(=O)(=O)NCC(C)(O)c1ccc2c(c1)OCO2 (configuration not stated) | -3.11
7 | COc1ccc(CC(C)(O)CNC(=O)Cc2ccc(F)cc2)cc1 (configuration not stated) | -21
8 | CC(O)(CCc1ccccc1)CNC(=O)c1cccs1 (configuration not stated) | -3.94
9 | COc1ccc(C(=O)NCC(C)(O)CCc2ccccc2)cc1 (configuration not stated) | 3.78
10 | O=C(NCC1(O)CCc2ccccc21)Nc1ccc2c(c1)OCO2 (configuration not stated) | -3.18
11 | Cc1ccc(NC(=O)NCC2(O)CCCC2)cc1C | -1.58
12 | COc1ccc(S(=O)(=O)NCCC(O)c2ccccc2)c(C)c1 (configuration not stated) | -8.64
13 | CCOc1ccc(NC(=O)NCC(C)(O)c2cccs2)cc1 (configuration not stated) | -8.04
14 | O=C(NCCc1ccccc1)NCC(O)c1cccs1 (configuration not stated) | -14
15 | CC(O)(CNC(=O)c1c(F)cccc1Cl)c1ccco1 (configuration not stated) | 29.8
16 | CCCS(=O)(=O)N1CCN(CC(F)(F)F)CC1 | -5.82
17 | Cc1nc(C)c(CC(=O)NCc2ccc(F)cc2F)s1 | -11.3
18 | Cc1ccnc(OCC(=O)N2CCCC2)n1 | -0.226
19 | COc1ccc(N2CCN(C(=O)COc3nccc(C)n3)CC2)cc1 | -3.87
20 | CN(CC(=O)NCC(F)(F)F)C(=O)c1ccc(=O)[nH]c1 | -8.21
21 | Cc1cc(NC(=O)Cn2cnc(-c3cccs3)cc2=O)sn1 | 11.1
22 | COc1nn(C)cc1C(=O)NCC(=O)NCc1cccnc1 | -2.92
23 | O=S(=O)(c1cccnc1)N1CCN(CC(O)c2cccs2)CC1 (configuration not stated) | -1.48
24 | CCS(=O)(=O)N1CC(c2nc(-c3ccncc3)no2)C1 | -2.55
25 | O=C(c1ccccn1)N1CC[C@H]2C(=O)N(c3ccsc3)CCO[C@H]2C1 | -15.7
26 | COc1cc(N2CCc3ncnc(-c4ccoc4)c3CC2)ncn1 | -7.42

Row | Structure (SMILES) | cytotoxicity at 70.5 h [%]
27 | CNC(=O)[C@H]1CC[C@@H]2[C@@H](CCN2c2ncccn2)O1 | 3.25
28 | Cc1cc(CN2C[C@H]3CCC[C@@]3(COCC(=O)N3CCCC3)C2)no1 | -4.89
29 | CNC(=O)N1CCN(C(=O)C(C)C)CC2(CC(=O)N(C)C2)C1 (configuration not stated) | -5.77
30 | Cn1cccc1C(=O)N1CCC2(CC1)CCN2S(C)(=O)=O | -4.8
31 | Cn1cccc1C(=O)N1CCC2(CCCN2S(C)(=O)=O)CC1 | -8.2
32 | Cc1oncc1C(=O)N1CC[C@H]2CO[C@H](CN3CCCC3)[C@H]2C1 | -7.95
33 | COc1cc(N2CC[C@H]3OCC[C@@]3(COc3nccc(C)n3)C2)ncn1 | -17.3
34 | CCN1CC2(CC1=O)CN(C(=O)C(C)C)CCN(S(=O)(=O)CC)C2 (configuration not stated) | -4.9
35 | CN(C)C(=O)N1CC2(CCN(S(=O)(=O)C3CC3)CC2)c2ccccc21 | 0.848
36 | Cc1nc(C)c2c(n1)CCN(Cc1ccsc1)CC2 | -0.781
37 | O=C(Cc1cccs1)N1CCC2(CCCN(CC3CCOCC3)C2)C1 (configuration not stated) | -6.08
38 | CCCS(=O)(=O)N1CCC2(CC1)CN(C(=O)N(C)C)c1ccccc12 | -10.2
39 | O=S(=O)(C1CC1)N1CCCC2(COCCN(c3nncs3)C2)C1 (configuration not stated) | 12.7
40 | O=C(C1CCC2(CCN(c3nncs3)CC2)C1)N1CCCC1 (configuration not stated) | 9.17
41 | CO[C@@H]1CC[C@H]2[C@H]1OCCN2S(=O)(=O)c1cn(C)cn1 | 0.221
42 | Cc1cccc(N2CC[C@@H]3[C@@H](CO[C@H]3CNC(=O)c3ccco3)C2)n1 | -0.126
43 | O=C(NCc1ccccc1)N1C[C@H]2C[C@H](C(=O)N3CCCC3)[C@@H](C1)O2 | -5.41
44 | CC(C)C(=O)N1CCC12CCCN(C(=O)c1ccccc1)C2 (configuration not stated) | -2.99
45 | CC(C)CNC(=O)c1nc2c(s1)CCN(C(=O)c1cccnc1)CC2 | -4.69
46 | O=C(C1CCC2(CCN(c3ncccn3)CC2)CO1)N1CCCC1 (configuration not stated) | -5.27
47 | O=C(NCCc1ccccc1)N1C[C@H]2C[C@H](C(=O)N3CCCC3)[C@@H](C1)O2 | 0.399
48 | Cn1cnc(S(=O)(=O)N2CCO[C@H]3[C@H](OCC4CC4)CC[C@@H]32)c1 | -2.37
49 | Cc1cc(C(=O)NCCN2CCN(S(C)(=O)=O)CC2)no1 | -10.9
50 | CCCc1nnsc1C(=O)N1CCN(CC(C)O)CC1 (configuration not stated) | -1.92
51 | O=C(NCc1ccc(Cl)cc1)N1CCN(CC(O)C2CC2)CC1 (configuration not stated) | -8.1
52 | O=C(NCc1ccc(F)cc1)N1CCN(CC(O)C2CC2)CC1 (configuration not stated) | -2.01

Row | Structure (SMILES) | cytotoxicity at 70.5 h [%]
53 | OC(CN1CCN(Cc2cc(F)ccc2F)CC1)C1CC1 (configuration not stated) | 0.724
54 | OC(CN1CCN(Cc2cc(F)cc(F)c2)CC1)C1CC1 (configuration not stated) | 28.5
55 | COCCN1CCOCC12CCN(C(=O)Cc1cccs1)CC2 | -6.94
56 | CC1CCN(C(=O)[C@H]2C[C@@H]3CCN(CC4CCOCC4)C[C@@H]3O2)CC1 | -6.29
57 | Cn1nc(COc2cncnc2)c2c1CCN(Cc1ccccn1)C2 | 6.46
58 | Cn1nc(COc2cncnc2)c2c1CCN(Cc1ccco1)C2 | 6.82
59 | CCS(=O)(=O)NC[C@]12COC[C@H]1CN(CCc1ccccc1)C2 | -5.39
60 | CC(C)NC(=O)N1CC[C@@H](N(C)C)[C@@H]1Cc1ccccc1 | -10.3
61 | Cc1noc(C)c1CNCC1COCc2c(-c3ccsc3)nnn2C1 (configuration not stated) | -15.2
62 | O=C(C[C@@H]1COC[C@H]2CN(CC3CCOCC3)C[C@@H]12)N1CCCCO1 | -8.58
63 | CC(=O)N1CCC2(CC1)COC(COCc1ccccn1)C2 (configuration not stated) | -1.84
64 | O=C1[C@H]2CN(C3CCOCC3)C[C@H]2CN1Cc1cccc(F)c1 | 0.427
65 | COCCN1CCC2(COCc3c(C)nc(N4CCOCC4)nc32)C1 (configuration not stated) | -1.01
66 | COc1ccc(C(=O)N2CC[C@@H]3[C@H](CC2)N(C)CCS3(=O)=O)cc1 | -7.15
67 | Cc1cccc(CN2C[C@@H]3CN(C4CCOCC4)C[C@@H]3C2=O)c1 | -4.96
68 | Fc1cnccc1CN1CCC2(CCN2c2ncccn2)C1 (configuration not stated) | -7.95
69 | Fc1cnccc1CN1CCCC2(CCN(c3ncccn3)CC2)C1 | -5.15
70 | CCOCc1cnc2n1CCN(Cc1nc(C)cs1)C2C (configuration not stated) | -3.1
71 | Cc1ccc(N2CC[C@@H]3CN(Cc4cc[nH]n4)C[C@@H]3C2)nn1 | -2.82
72 | CCS(=O)(=O)NC[C@]12COC[C@H]1CN(Cc1ccncc1)C2 | -5.02
73 | CC(C)NC(=O)N1CC[C@@H](N(C)C)[C@@H]1Cc1ccncc1 | -6.16
74 | CS(=O)(=O)N1CCC2(CCCN(Cc3ccccn3)C2)C1 (configuration not stated) | 9.19
75 | CN(Cc1cccnc1)C[C@@H]1OC[C@H]2CN(C(=O)C3CC3)CC[C@H]21 | -5.43
76 | O=C1[C@H]2CN(C3CCOCC3)C[C@H]2CN1Cc1ccncc1 | -8.99
77 | CN(Cc1cccnc1)C[C@@H]1OC[C@H]2CN(Cc3ccco3)CC[C@H]21 | -2.49
